Laboratory results published in patent US20100210602A1, “PhoU (PerF), A P[…] INVOLVED IN [sequence] FORMATION AND TOLERANCE TO MULTIPLE ANTIBIOTICS AND [sequence] AS A DRUG TARGET FOR [sequence] BACTERIA” (priority 2006, published 2010).
≈ marks a conversion by molar mass, not a printed value. Where two headings read alike, the source gives them in different places.

What was measured:
PhoU = molecular target: T1, PhoU (Escherichia coli, UniProt P0A9K7); assay: PhoU phosphatase substrate specificity; assay type: biochemical, E. coli; conditions: pH5, pH7 and pH8
T1 construct: His; made in house
T1 sequence (P0A9K7 whole entry): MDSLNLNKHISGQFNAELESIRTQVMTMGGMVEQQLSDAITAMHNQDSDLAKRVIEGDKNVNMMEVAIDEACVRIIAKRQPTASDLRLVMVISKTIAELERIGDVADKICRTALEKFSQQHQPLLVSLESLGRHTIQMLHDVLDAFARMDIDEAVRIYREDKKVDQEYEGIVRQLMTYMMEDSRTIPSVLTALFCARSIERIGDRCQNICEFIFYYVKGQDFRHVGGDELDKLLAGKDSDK
Procedure: Different substrates for the PhoU phosphatase activity were tested. […] For PhoU, the substrates acetyl-P, carbamoyl-P, imido-di phosphate (imido-di-P), r-nitrophenyl phosphate (rNPP), β-Nicotinamide adenine dinucleotide phosphate (NADP), Glucose-1,6-bisphosphate (Glucose-1,6-bisP) were tested at pH5, pH7, and pH8 condition, as potential PhoU phosphatase activity.

W3110 [1] = system: W3110
Procedure: (§1) The sensitivity of the bacterial strains to antibiotics or peroxide was determined by Kirby-Bauer's paper disc assay as measured by zone inhibition in millimeters.
(§2) The sensitivity of bacterial strains to antibiotics or stresses was also assessed by the Kirby-Bauer method (2) using paper discs. E. coli bacteria were grown to log phase (10^8 bacteria) in LB broth. An inoculum from this culture was spread across the surfaces of LB plates to provide confluent growth. Nitrocellulose discs (7 mm in diameter) soaked with appropriate antibiotics or stress agents (100 mM H2O2, were placed on the agar surface). After incubation at 37° C. for 48 h, the diameter of the zone of growth inhibition was measured and scored according to the size of the zone of inhibition, which is directly proportional to the sensitivity of the organism to the antibiotic.

JHU-313 = assay: Kirby-Bauer paper disc assay, zone inhibition
Procedure: as §1, §2

[2] = system: JHU-313 containing pVector; assay: Kirby-Bauer paper disc assay, zone inhibition
Procedure: as §1, §2

JHU-313 containing pPhoU [3] = assay: Kirby-Bauer paper disc assay, zone inhibition
Procedure: as §1, §2

H37Rv [4] = assay: microbe, parasite or virus in culture; assay type: cell-based, M. tuberculosis; conditions: Mycobacterium tuberculosis, 240 h, 10 days at 37° C.
wild type strain W3110 [5] = assay type: cell-based, E. coli; conditions: 20 h after 1.5 h ampicillin pre-exposure; ampicillin 100, gentamicin 20, trimethoprim 16, norfloxacin 5 μg/ml
[6] = system: PhoU transposon mutant (JHU-313); assay type: cell-based
W3110 [7] = assay: microbe, parasite or virus in culture; conditions: Escherichia coli, read-out: zone inhibition
Procedure: as §1, §2

[8] = system: JHU-313 containing pVector; assay: MIC/MBC by serial two-fold dilutions in LB broth; assay type: cell-based, E. coli; conditions: 16 h at 37° C.
JHU-313 containing pPhoU [9] = assay: MIC/MBC by serial two-fold dilutions in LB broth; assay type: cell-based, E. coli; conditions: 16 h at 37° C.
wild type strain W3110 [10] = assay type: cell-based
PhoU mutant (JHU-313) [11] = assay: Sequential antibiotic exposure of ampicillin persisters (CFU); assay type: cell-based, E. coli; conditions: 20 h after 1.5 h ampicillin pre-exposure; ampicillin 100, gentamicin 20, trimethoprim 16, norfloxacin 5 μg/ml
wild type strain W3110 [12] = assay: microbe, parasite or virus in culture; assay type: cell-based, E. coli; conditions: LB broth, 16 h at 37° C.
PhoU mutant (JHU-313) [13] = assay: MIC/MBC by serial two-fold dilutions in LB broth; assay type: cell-based, E. coli; conditions: 16 h at 37° C.
[14] = system: PhoU deletion mutant (ΔphoU); assay type: cell-based
H37Rv [15] = assay: microbe, parasite or virus in culture; assay type: cell-based, M. tuberculosis; conditions: Mycobacterium tuberculosis
parent strain H37Rv = assay type: cell-based, M. tuberculosis; conditions: 8 μg/ml
PhoY2 = PhoY2 (Mycobacterium tuberculosis, UniProt P9WI95); assay: EnzChek phosphatase assay, FDA approved compound library screen; assay type: biochemical, M. tuberculosis; conditions: 50 μM final concentration; 30 min, 60 min and overnight
Chain of PhoY2 (P9WI95 whole entry): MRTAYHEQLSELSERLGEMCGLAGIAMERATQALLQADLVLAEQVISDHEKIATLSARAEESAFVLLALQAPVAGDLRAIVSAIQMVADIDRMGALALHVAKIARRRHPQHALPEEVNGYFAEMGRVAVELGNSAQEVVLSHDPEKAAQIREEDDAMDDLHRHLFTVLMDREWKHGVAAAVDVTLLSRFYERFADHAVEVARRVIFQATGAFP
Procedure: The FDA approved compound library consisting of about 3000 clinical compounds (50 μM final concentration) was screened for inhibitory activity for M. tuberculosis PhoU homolog PhoY2 for phosphatase activity using the EnzChek phosphatase assay kit in a 96 well plate format. The assay was run for 30 min, 60 min and overnight when the plates were read in a fluorescence plate reader (Perkin Elmer). Aurintricarboxylic acid, a known phosphatase inhibitor, was included as a positive control.

[16] = Escherichia coli, read-out: zone inhibition
[17] = log phase, 1 week, Ap100, Norf3
[18] = log phase, 5 hr, ampicillin 100 μg/ml (Ap100), norfloxacin 3 μg/ml (Norf3)
[19] = log phase, 3 days, Ap100, Norf3
[20] = log phase, 5 days, Ap100, Norf3
[21] = log phase, 10 days, Ap100, Norf3
[22] = log phase, ampicillin 100 μg/ml, norfloxacin 3 μg/ml
[23] = stationary phase, 3 μg/ml, 120 hr exposure
[24] = stationary phase, 1 week, Ap100, Norf3
[25] = stationary phase, 5 hr, ampicillin 100 μg/ml (Ap100), norfloxacin 3 μg/ml (Norf3)
[26] = stationary phase, 1 day, Ap100, Norf3
[27] = stationary phase, 3 days, Ap100, Norf3
[28] = stationary phase, 5 days, Ap100, Norf3
[29] = stationary phase, 10 days, Ap100, Norf3
[30] = stationary phase, norfloxacin 3 μg/ml
[31] = Escherichia coli, read-out: MBC
[32] = Escherichia coli, read-out: MIC

Compound: O=P(O)(O)OC[C@H]1O[C@H](OP(=O)(O)O)[C@H](O)[C@@H](O)[C@@H]1O [Glucose-1,6-bisP, Glucose-1,6-bisphosphate]
- rank as PhoU phosphatase substrate (PhoU): acetyl-P>rNPP>carbamoyl-P>Glucose-1,6-bisP>NADP

Compound: OO [Hydrogen peroxide, hydrogen peroxide]
- zone inhibition (W3110 [1]): 30 mm
- zone inhibition (JHU-313; peroxide (30%)): 37 mm
- zone inhibition ([2]; peroxide (30%)): 46 mm
- zone inhibition (JHU-313 containing pPhoU [3]; peroxide (30%)): 39 mm

Compound: NNC(=O)c1ccncc1 [INH, isoniazid]
- MIC (H37Rv [4]): 0.2 µg/mL (≈ 1.46 µM)

Compound: CCn1cc(C(=O)O)c(=O)c2cc(F)c(N3CCNCC3)cc21 [Norfloxacin, norfloxacin]
- zone of inhibition at 0.1 µg/mL (JHU-313; [16]): 28 mm
- zone of inhibition at 0.5 µg/mL (JHU-313; [16]): 30 mm
- zone of inhibition at 2 µg/mL (JHU-313; [16]): 34 mm
- zone of inhibition at 4 µg/mL (JHU-313; [16]): 37 mm
- CFU after second antibiotic exposure (wild type strain W3110 [5]): 7 × 10^5 CFU/ml
- CFU [6, 17]: 0 CFU
- CFU [6, 18]: 2 × 10^7 CFU
- CFU ([6]; log phase, 1 day, Ap100, Norf3): 4 × 10^5 CFU
- CFU [6, 19]: 0 CFU
- CFU [6, 20]: 0 CFU
- CFU [6, 21]: 0 CFU
- time to killing of all cells [6, 22]: 1 days
- viable bacteria left [6, 23]: no viable bacteria were left
- CFU [6, 24]: 0 CFU
- CFU [6, 25]: 3 × 10^8 CFU
- CFU [6, 26]: 4.5 × 10^7 CFU
- CFU [6, 27]: 2 × 10^5 CFU
- CFU [6, 28]: 0 CFU
- CFU [6, 29]: 0 CFU
- time to complete killing [6, 30]: ≤ 5 days
- zone of inhibition at 0.1 µg/mL (W3110 [7]): 24 mm
- zone of inhibition at 0.5 µg/mL (W3110 [7]): 27 mm
- zone of inhibition at 2 µg/mL (W3110 [7]): 30 mm
- zone of inhibition at 4 µg/mL (W3110 [7]): 32 mm
- MBC [8, 31]: 0.5 µg/mL (≈ 1.57 µM)
- MIC [8, 32]: 0.125 µg/mL (≈ 0.391 µM)
- MBC (JHU-313 containing pPhoU [9]; [31]): 1 µg/mL (≈ 3.13 µM)
- MIC (JHU-313 containing pPhoU [9]; [32]): 0.5 µg/mL (≈ 1.57 µM)
- CFU (wild type strain W3110 [10]; [17]): 0 CFU
- CFU (wild type strain W3110 [10]; [18]): 1 × 10^8 CFU
- CFU (wild type strain W3110 [10]; log phase, 1 day, Ap100, Norf3): 4 × 10^6 CFU
- CFU (wild type strain W3110 [10]; [19]): 5 × 10^4 CFU
- CFU (wild type strain W3110 [10]; [20]): 7 × 10^2 CFU
- CFU (wild type strain W3110 [10]; [21]): 0 CFU
- time to killing of all cells (wild type strain W3110 [10]; [22]): 5 days
- viable bacteria left (wild type strain W3110 [10]; [23]): about 10^7 CFU/ml
- CFU (wild type strain W3110 [10]; [24]): 1.5 × 10^4 CFU
- CFU (wild type strain W3110 [10]; [25]): 5 × 10^9 CFU
- CFU (wild type strain W3110 [10]; [26]): 4 × 10^9 CFU
- CFU (wild type strain W3110 [10]; [27]): 1 × 10^8 CFU
- CFU (wild type strain W3110 [10]; [28]): 4 × 10^6 CFU
- CFU (wild type strain W3110 [10]; [29]): 2 × 10^2 CFU
- CFU after second antibiotic exposure (PhoU mutant (JHU-313) [11]): 0 CFU/ml
- zone of inhibition at 0.1 µg/mL [2, 16]: 29 mm
- zone of inhibition at 0.5 µg/mL [2, 16]: 35 mm
- zone of inhibition at 2 µg/mL [2, 16]: 40 mm
- zone of inhibition at 4 µg/mL [2, 16]: 44 mm
- zone of inhibition at 0.1 µg/mL (JHU-313 containing pPhoU [3]; [16]): 27 mm
- zone of inhibition at 0.5 µg/mL (JHU-313 containing pPhoU [3]; [16]): 31 mm
- zone of inhibition at 2 µg/mL (JHU-313 containing pPhoU [3]; [16]): 35 mm
- zone of inhibition at 4 µg/mL (JHU-313 containing pPhoU [3]; [16]): 36 mm
- MBC (wild type strain W3110 [12]; Escherichia coli, W3110, read-out: MBC): 1 µg/mL (≈ 3.13 µM)
- MIC (wild type strain W3110 [12]; Escherichia coli, W3110, read-out: MIC): 0.5 µg/mL (≈ 1.57 µM)
- MBC (PhoU mutant (JHU-313) [13]; [31]): 0.5 µg/mL (≈ 1.57 µM)
- MIC (PhoU mutant (JHU-313) [13]; [32]): 0.125 µg/mL (≈ 0.391 µM)
- CFU [14, 17]: 0 CFU
- CFU [14, 18]: 5 × 10^7 CFU
- CFU ([14]; log phase, 1 day, Ap100, Norf3): 1 × 10^6 CFU
- CFU [14, 19]: 0 CFU
- CFU [14, 20]: 0 CFU
- CFU [14, 21]: 0 CFU
- time to killing of all cells [14, 22]: 1 days
- CFU [14, 24]: 0 CFU
- CFU [14, 25]: 6 × 10^8 CFU
- CFU [14, 26]: 2 × 10^8 CFU
- CFU [14, 27]: 3 × 10^5 CFU
- CFU [14, 28]: 0 CFU
- CFU [14, 29]: 0 CFU
- time to complete killing [14, 30]: ≤ 5 days

Compound: CO[C@H]1/C=C/O[C@@]2(C)Oc3c(C)c(O)c4c(O)c(c(/C=N/N5CCN(C)CC5)c(O)c4c3C2=O)NC(=O)/C(C)=C\C=C\[C@H](C)[C@H](O)[C@@H](C)[C@@H](O)[C@@H](C)[C@H](OC(C)=O)[C@@H]1C [RIF, rifampin]
- MBC (H37Rv [15]): 0.2 µg/mL (≈ 0.243 µM)
- MIC (H37Rv [15]): 0.1 µg/mL (≈ 0.122 µM)
- CFU/ml 3 day (parent strain H37Rv): 3.37 × 10^5 CFU/ml
- MIC (H37Rv [4]): 0.2 µg/mL (≈ 0.243 µM)

Compound: CC(=O)OP(=O)(O)O [acetyl-P, acetyl phosphate]
- rank as PhoU phosphatase substrate (PhoU): acetyl-P>rNPP>carbamoyl-P>Glucose-1,6-bisP>NADP

Compound: NC(=O)OP(=O)(O)O [carbamoyl-P, carbamoyl phosphate]
- rank as PhoU phosphatase substrate (PhoU): acetyl-P>rNPP>carbamoyl-P>Glucose-1,6-bisP>NADP

Compound: C1CNCCN1 [piperazine]
- inhibition of PhoY2 enzyme activity in library screen (PhoY2): inhibit PhoY2 enzyme activity

Compound: CN1CCCN=C1/C=C/c1cccs1 [pyrantel pamoate]
- inhibition of PhoY2 enzyme activity in library screen (PhoY2): inhibit PhoY2 enzyme activity

Compound: O=[N+]([O-])c1ccc(OP(=O)(O)O)cc1 [rNPP, r-nitrophenyl phosphate]
- rank as PhoU phosphatase substrate (PhoU): acetyl-P>rNPP>carbamoyl-P>Glucose-1,6-bisP>NADP

Compound: gentamicin
- zone inhibition (W3110 [1]; 0.1 μg/ml): 14 mm
- zone inhibition (W3110 [1]; 0.5 μg/ml): 20 mm
- zone inhibition (W3110 [1]; 2 μg/ml): 22 mm
- zone inhibition (W3110 [1]; 10 μg/ml): 25 mm
- zone inhibition (JHU-313; 0.1 μg/ml): 20 mm
- zone inhibition (JHU-313; 0.5 μg/ml): 22 mm
- zone inhibition (JHU-313; 2 μg/ml): 26 mm
- zone inhibition (JHU-313; 10 μg/ml): 27 mm
- CFU after second antibiotic exposure (wild type strain W3110 [5]): 5 × 10^5 CFU/ml
- MBC [8]: 2.5 µg/mL
- MIC [8]: 1.25 µg/mL
- MBC (JHU-313 containing pPhoU [9]): 5 µg/mL
- MIC (JHU-313 containing pPhoU [9]): 2.5 µg/mL
- CFU after second antibiotic exposure (PhoU mutant (JHU-313) [11]): 2 × 10^3 CFU/ml
- zone inhibition ([2]; 0.1 μg/ml): 22 mm
- zone inhibition ([2]; 0.5 μg/ml): 29 mm
- zone inhibition ([2]; 2 μg/ml): 30 mm
- zone inhibition ([2]; 10 μg/ml): 31 mm
- zone inhibition (JHU-313 containing pPhoU [3]; 0.1 μg/ml): 17 mm
- zone inhibition (JHU-313 containing pPhoU [3]; 0.5 μg/ml): 22 mm
- zone inhibition (JHU-313 containing pPhoU [3]; 2 μg/ml): 24 mm
- zone inhibition (JHU-313 containing pPhoU [3]; 10 μg/ml): 28 mm
- MBC (wild type strain W3110 [12]): 5 µg/mL
- MIC (wild type strain W3110 [12]): 2.5 µg/mL
- MBC (PhoU mutant (JHU-313) [13]): 2.5 µg/mL
- MIC (PhoU mutant (JHU-313) [13]): 1.25 µg/mL

Compound: β-Nicotinamide adenine dinucleotide phosphate [NADP]
- rank as PhoU phosphatase substrate (PhoU): acetyl-P>rNPP>carbamoyl-P>Glucose-1,6-bisP>NADP
